# Experimental data: patent publication US20100068747A1, “Generic Assay for Monitoring Endocytosis” (Evotec Technologies GmbH, priority 2005, published 2010)
# “Also recorded” adds a separate entry of the source.
# What was measured:
# CHO/PAR-2 cells = test: Lectin labeling of fixed cells, CHO/PAR-2; format: cell-based; settings: TRITC-lectin 10 nM and 20 nM
# Method: (§1) Lectin labeling of fixed cells was conducted as follows: To detach confluent cells in order to prepare experiments for internalization studies, cells were always treated with EDTA solution instead of trypsin solution. For all seeding, washing, and labeling steps in 96-well plates a working volume of 100 μl per well was assessed. Cells were seeded out into a 96-well plate at different concentrations. U2OS/ETAR-GFP suspensions were adjusted to yield 2*10^4 cells/well, both of the CHO cell lines must be at 2.5*10^4 cells/well. Cells became confluent after 24 hours of incubation. In the following, they were washed with phosphate buffered saline (PBS) and fixed with 3% PFA for 20 minutes at RT. Then, cells were washed again with PBS and incubated in 10 nM and 20 nM solutions of each TRITC-lectin candidate in PBS, respectively. Again, cells were washed with PBS to remove excess lectin, and wells were refilled with PBS for analysis. For specificity controls, lectin solutions were incubated for 30 minutes prior to the application with an excess of the monosaccharide that represents the respective glyco-epitope.
# (§2) The following microscopy and image analysis techniques were employed. When utilizing the epifluorescence microscope magnifications were adjusted according to the purpose of observation, e.g. single cell vs. cell collective. Concerning the filters U-MNU was used for Hoechst, U-MSWB for GFP, and U-N41007 for TRITC detection. Hoechst images were taken at 50 ms exposure time, GFP images at 100 to 200 ms and TRITC images needed 500 to 1000 ms. Overlay images were assembled with AnalySIS and tuned in color intensity to obtain the desired color contrast. Images taken to compare two experimental conditions, e.g. control vs. stimulus, featured identical exposure parameters. If possible, well areas were chosen that reflect similar states of confluence. Utilizing the Opera confocal fluorescence imager, the instrument was calibrated running standard methods for skew cropping (spatial camera alignments) and camera intensity normalization.
# CHO/ETAR cells [1] = test: Lectin labeling of live cells, CHO/ETAR; format: cell-based; settings: TRITC-lectin, 10 nM at maximum
# Method: Lectin labeling of live cells was conducted as follows: Cells were seeded as described above. After 24 hours cells were washed once with PBS and incubated in the incubator for another 2 hours in the respective standard medium without serum supplement to deprive them of serum factor mediated stimuli. This step was termed starvation period. Subsequently, cells were washed gently with PBS and incubated with 37° C. tempered assay medium comprised of Hank's Balanced Salt Solution (HBSS) pH 7.4, containing 20 mM HEPES and 30 mM D-glucose. The plate was left at RT for 30 minutes to slowly level its temperature and, thus, avoid capturing of temperature drop induced membrane dynamics. This period was termed leveling period. Then, assay medium was withdrawn and wells refilled with TRITC-lectin solutions at RT to start cell labeling. Several lectin concentrations in the low nano-molar range were tested. Molar concentrations were calculated from the data provided by Vector Labs. The plate was placed on a rotating shaker at low revolutions for 10 minutes while incubating. The start of the lectin incubation is referred to as assay starting point with t=0 min. After the 10 min incubation period the cells were gently washed with PBS and wells refilled with assay buffer at RT. Instantly thereafter, fluorescence signals were monitored predominately using the epifluorescence microscope.
# as §2
# CHO/ETAR cells [2] = test: Lectin labeling of fixed cells, CHO/ETAR; format: cell-based; settings: TRITC-lectin 10 nM and 20 nM
# Method: as §1, §2
# [3] = tested on: CHO/ETAR cell membrane protein; test: Lectin blotting of ETAR membrane sample; format: binding
# Method: Membrane preparation was conducted as follows: Cells were cultured in five T175 flasks until confluency. Confluent cells were detached by applying 3 ml of EDTA solution onto the PBS washed cells. Following a 20-minute incubation at 37° C. and 5% CO2, cells were resuspended in 12 ml of starvation medium (standard medium without FCS), counted, and centrifuged in a Heraeus Megafuge 1.0R at 133 rcf for 4 minutes. All subsequent steps were carried out on ice and with ice cold solutions. After unification of all pellet fractions, hypotonic lysis buffer was added to the cells at a ratio of 1 ml per 5*10^7 cells. Additionally, protease inhibitor cocktail was added to 50 μl per 5*10^7 cells. Cells were homogenized with 30 strokes in a 5 ml potter on ice, centrifuged at 4° C. and 917 rcf for 10 minutes, and the supernatant was stored in an ultracentrifuge tube on ice. The pellet fraction was homogenized and centrifuged once again as described above. The supernatants of both procedures were unified and centrifuged at 4° C. and 100,000 rcf for 45 minutes in a Sorvall ultra-centrifuge. The supernatant of this centrifugation procedure was withdrawn and the pellet dissolved in 0.5 ml or 1.0 ml modified SDS PAGE loading buffer containing Tris-HCl, SDS, glycerol, but no β-mercapto-ethanol or dyes and stored in small aliquots of 50 μl at −20° C.
# SDS-Page of membrane samples was conducted as follows: Discontinuous 12% polyacrylamide gels were prepared according to a standard protocol. Broad range marker and 25 μg membrane protein were mixed 1:1 with loading buffer and loaded five times onto a mini gel in alternating order. The gels were run at U=100 V for the first 20 minutes. Subsequently, voltage was increased to U=150 V. The run was aborted as soon as the pyronin G band reached the end of the gel. For coomassie staining, gels were put in coomassie staining solution on a shaker at low revolutions for 45 min. The staining solution was removed and the gel incubated with destaining solution for one to two hours, exchanging the solution several times until the desired contrast was obtained. […]
substance,measurement,setting,value
succinylated Triticum vulgaris (wheat germ) agglutin [sWGA],Staining of CHO/PAR-2,CHO/PAR-2 cells,signals clearly marking individual cells; also recorded: cell surface
same,Live cell staining of CHO/ETAR,CHO/ETAR cells [1],single spot formation continued fairly slowly
same,Staining of CHO/ETAR,CHO/ETAR cells [2],cell surface
same,bands that stood out below 35 kDa,[3]; ETAR sample,five
same,"band at the same height as in the western (47 kDa, anti-ETAR)",[3]; biotinylated lectin 5 μg/ml,very faint band
